Source: article PMC12224939, “Trypstatin as a Novel TMPRSS2 Inhibitor with Broad‐Spectrum Efficacy against Corona and Influenza Viruses” (Advanced Science, 2025)
Counter-ions that a name gives are not always drawn. Like-named read-outs stand apart in the source and are kept apart here. Bridge positions count the residues as written; N and C are the ends. Ends that are not written are not given here.

How the values were obtained:
[1] = system: Influenza A/Virginia/ATCC3/2009 (Virg09; A/H1N1); assay: Influenza virus inhibition assay in Calu-3 cells, IAV H1N1; assay type: cell-based, influenza A virus
[2] = system: Influenza B/Ned/537/05 (Ned05; B/Yamagata lineage); assay: Influenza virus inhibition assay in Calu-3 cells, IBV; assay type: cell-based, influenza B virus
[3] = target: T1, TMPRSS11D (Homo sapiens, UniProt O60235); assay: Cellular TMPRSS11D activity assay in transfected HEK293T cells; assay type: cell-based
T1 construct: encoding the respective transmembrane serine protease per well; host or cells: HEK293T
Method: (§1) Twenty thousand HEK293T cells were seeded in a 96‐well flat bottom plate. The next day, cells were transfected with 100 ng of an expression plasmid (Backbone: Twist Bioscience, EF1alpha mammalian expression vector) encoding the respective transmembrane serine protease per well using LT1 transfection reagent (TMPRSS2 human NCBI RefSeq: NP_005647.3; TMPRSS2 Syrian gold hamster NCBI RefSeq: XP_012971683.1; TMPRSS11D NCBI RefSeq: NP_004253.1; TMPRSS13 NCBI RefSeq: NP_001070731.1). In short, plasmid DNA was mixed in a 1:3 ratio with LT1 in a serum‐free medium and incubated for 20 min before the mixture was applied dropwise onto the cells. Sixteen hours post‐transfection, the medium was replaced by a serum‐free medium, and cells were treated with serial dilution of compounds in PBS. After 15 min of incubation at 37 °C, 100 µM of respective protease‐specific substrate (TMPRSS2: Boc‐QAR‐AMC, Bachem # 4017019; TMPRSS11D: Boc‐FSR‐AMC, Bachem # 4012340; TMPRSS13: Pyr‐RTKR‐AMC, Bachem #4018149) was added and incubated for 2 h at 37 °C. Fluorescence intensity was recorded at an excitation wavelength of 380 nm and emission wavelength of 460 nm in a Synergy H1 microplate reader (BioTek) with Gen 5 3.04 software. Values were background corrected for non‐transfected HEK293T‐cells.

[4] = target: T2, TMPRSS13 (Homo sapiens, UniProt Q9BYE2); assay: Cellular TMPRSS13 activity assay in transfected HEK293T cells; assay type: cell-based
T2 construct: encoding the respective transmembrane serine protease per well; host or cells: HEK293T
Method: as §1

[5] = target: T3, TMPRSS14 (Matriptase) (Homo sapiens, UniProt Q9Y5Y6); assay: Recombinant TMPRSS14 activity assay; assay type: biochemical; conditions: recombinant enzyme
T3 construct: purchased 3946
Method: In the next step, 50 µL of 20 µM BOC‐Gln‐Ala‐Arg‐AMC protease substrate (Bachem #4017019) in the case of TMPRSS2 and TMPRSS14 or 50 µL of 150 µM BOC‐Gln‐Arg‐Arg‐AMC (PeptaNova) in the case of TMPRSS1 was added and incubated for 2 h for TMPRSS2, or 5 mins in the case of TMPRSS1/14 at 37 °C. Fluorescence intensity was measured after 2 h at an excitation wavelength of 380 nm and emission wavelength of 460 nm in a SynergyTM H1 microplate reader (BioTek) with Gen5 3.04 software. […] Assays were performed in a total volume of 100 µL in quadruplicate wells of a 96 Nunc well plate (Thermo Scientific #10174221) with a final TMPRSS2 concentration of 20 nM. Initial velocities were measured in 50 s intervals for 15 min with excitation of 360 nm and emission of 460 nm in a SynergyTM H1 microplate reader. K m and V max were calculated from Michaelis–Menten plots using GraphPadPrism. The inhibitory constant K i was calculated from the IC50 values according to the Cheng–Prusoff equation (K i = IC50/(1 + [S]/K m)) for competitive reversible inhibitors.^[ [91] ^]

[6] = target: T4, Kallikrein 5 (Homo sapiens, UniProt Q9Y337); assay: Recombinant kallikrein 5 activity assay; assay type: biochemical; conditions: recombinant enzyme
T4 construct: purchased R&D 1108
Method: Kallikrein 5 activity was measured by mixing 25 µL of compound with 25 µL of 2 µg mL^−1 of recombinant enzyme (R&D #1108) in assay buffer (100 mM NaH2PO4, pH 8) for 15 min at 37 °C before the addition of 50 µL of BOC‐Val‐Pro‐Arg‐AMC substrate (R&D #ES011). The mixture was incubated for 5 min at 37 °C before fluorescence intensity was measured at an excitation wavelength of 380 nm and emission wavelength of 460 nm in a SynergyTM H1 microplate reader (BioTek) with Gen5 3.04 software.

[7] = system: SARS-CoV-2 Omicron BA.1; assay: microbe, parasite or virus in culture; assay type: cell-based
[8] = system: hCoV-NL63; assay: HCoV-NL63 inhibition assay in Caco-2 cells; assay type: cell-based
Method: Caco‐2 cells (25 000) were seeded in a 96‐well flat‐bottom plate before the following day, cells were treated for 30 min with serial dilutions of compounds in PBS and the cells were infected with a MOI of 0.018 and incubated at 33 °C. At 72 hpi, cells were detached and fixed in a final concentration of 4% PFA for 30 min. Subsequently, cells were washed with PBS and stained for flow cytometry analysis with anti‐NL63‐nucleocapsid antibody (SinoBiological #40641‐T62) diluted 1:5000 in Buffer B (Fix and Perm, MuBio Nordic) for 40 min at 4 °C. Cells were washed twice with FACS buffer (1% FCS in PBS) and incubated with Alexa Flour 647 labeled anti‐rabbit antibody (Cell Signaling #4414) diluted 1:5000 in FACS buffer for 30 min at 4 °C before the cells were washed again twice with FACS buffer. Analysis was performed using a CytoflexLX flow cytometer (Beckmann Coulter) with CytExpert 2.3 software.

[9] = system: Influenza A/Victoria/361/11 (Vict11; A/H3N2); assay: Influenza virus inhibition assay in Calu-3 cells, IAV H3N2; assay type: cell-based, influenza A virus
[10] = cited from earlier work
[11] = system: lentiviral pseudoparticles harboring VSV-G glycoprotein; assay type: cell-based
[12] = Table S1, read-out: anti-viral IC50 (±SEM), IAV H1N1
[13] = Table S1, read-out: anti-viral IC50 (±SEM), IBV
[14] = Human coronavirus NL63, Caco-2, Table S1, read-out: anti-viral IC50 (±SEM), hCoV-NL63

T1 sequence (O60235 whole entry): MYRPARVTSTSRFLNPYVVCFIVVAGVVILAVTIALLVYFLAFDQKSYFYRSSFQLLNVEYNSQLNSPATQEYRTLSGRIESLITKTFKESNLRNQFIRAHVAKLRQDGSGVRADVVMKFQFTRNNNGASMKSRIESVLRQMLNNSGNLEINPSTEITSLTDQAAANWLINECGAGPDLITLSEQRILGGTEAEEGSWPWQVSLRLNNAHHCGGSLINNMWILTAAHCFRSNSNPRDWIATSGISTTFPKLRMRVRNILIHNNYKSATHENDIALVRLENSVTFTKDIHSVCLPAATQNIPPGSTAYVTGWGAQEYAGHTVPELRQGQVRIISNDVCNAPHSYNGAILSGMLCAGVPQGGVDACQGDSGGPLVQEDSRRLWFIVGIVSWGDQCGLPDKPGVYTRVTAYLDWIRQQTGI
T4 sequence (Q9Y337 23-293): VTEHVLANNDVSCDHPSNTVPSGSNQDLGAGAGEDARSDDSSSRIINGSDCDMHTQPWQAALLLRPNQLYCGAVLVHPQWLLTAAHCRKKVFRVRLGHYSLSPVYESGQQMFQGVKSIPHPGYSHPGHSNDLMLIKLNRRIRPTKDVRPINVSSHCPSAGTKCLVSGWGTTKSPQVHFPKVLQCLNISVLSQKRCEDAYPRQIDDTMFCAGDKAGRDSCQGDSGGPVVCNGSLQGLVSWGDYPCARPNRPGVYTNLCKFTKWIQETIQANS
T2 sequence (Q9BYE2 other isoform, or with tags, fused parts or gaps): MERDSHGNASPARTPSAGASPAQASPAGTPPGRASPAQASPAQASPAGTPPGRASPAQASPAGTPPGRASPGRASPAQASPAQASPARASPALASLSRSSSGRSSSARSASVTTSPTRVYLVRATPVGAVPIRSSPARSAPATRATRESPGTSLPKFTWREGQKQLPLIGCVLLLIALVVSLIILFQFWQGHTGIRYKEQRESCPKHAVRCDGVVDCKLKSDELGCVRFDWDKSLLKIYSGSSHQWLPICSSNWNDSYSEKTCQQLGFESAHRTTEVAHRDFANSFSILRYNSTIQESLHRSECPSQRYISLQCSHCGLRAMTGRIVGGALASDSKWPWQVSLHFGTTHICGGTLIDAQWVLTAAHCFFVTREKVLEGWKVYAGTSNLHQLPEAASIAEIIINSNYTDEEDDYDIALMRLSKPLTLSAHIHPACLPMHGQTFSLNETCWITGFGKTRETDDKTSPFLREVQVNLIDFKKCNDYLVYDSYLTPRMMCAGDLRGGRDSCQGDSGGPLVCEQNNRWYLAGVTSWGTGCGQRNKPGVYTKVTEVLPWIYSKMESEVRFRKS
T3 sequence (Q9Y5Y6 whole entry): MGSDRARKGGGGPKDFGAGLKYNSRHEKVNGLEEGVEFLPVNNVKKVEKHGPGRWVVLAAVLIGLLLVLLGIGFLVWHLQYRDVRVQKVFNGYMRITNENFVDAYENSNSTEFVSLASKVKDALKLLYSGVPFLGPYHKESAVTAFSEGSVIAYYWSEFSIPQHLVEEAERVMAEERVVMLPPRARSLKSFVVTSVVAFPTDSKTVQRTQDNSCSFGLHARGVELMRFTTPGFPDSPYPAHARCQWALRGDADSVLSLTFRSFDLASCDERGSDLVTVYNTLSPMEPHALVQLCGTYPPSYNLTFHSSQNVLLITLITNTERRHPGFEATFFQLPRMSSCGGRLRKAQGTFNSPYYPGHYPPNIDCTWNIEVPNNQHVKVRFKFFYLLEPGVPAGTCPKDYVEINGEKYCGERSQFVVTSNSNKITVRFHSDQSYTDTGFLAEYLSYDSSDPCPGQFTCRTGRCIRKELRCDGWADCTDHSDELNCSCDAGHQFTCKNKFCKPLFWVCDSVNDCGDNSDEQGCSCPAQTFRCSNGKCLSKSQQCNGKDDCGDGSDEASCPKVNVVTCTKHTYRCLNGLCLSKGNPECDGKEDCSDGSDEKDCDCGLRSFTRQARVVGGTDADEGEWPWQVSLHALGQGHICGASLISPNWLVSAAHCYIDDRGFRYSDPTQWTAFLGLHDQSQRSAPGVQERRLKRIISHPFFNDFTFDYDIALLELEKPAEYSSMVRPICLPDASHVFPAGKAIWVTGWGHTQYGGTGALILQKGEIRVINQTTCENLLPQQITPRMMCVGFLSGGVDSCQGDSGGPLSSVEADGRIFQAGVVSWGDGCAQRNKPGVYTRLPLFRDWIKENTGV

## O=C1c2c(O)c(=O)ccn2N([C@@H]2c3ccccc3SCc3c2ccc(F)c3F)[C@@H]2COCCN12 [Baloxavir acid]
[1]; [12]
  IC50: 1.6 ± 1 nM
[2]; [13]
  IC50: 10.3 ± 2 nM

## CN(C)C(=O)COC(=O)Cc1ccc(OC(=O)c2ccc(NC(=N)N)cc2)cc1 [Camostat mesylate]
[3]
  IC50: 194 nM
[4]
  IC50: 93 nM
[5]
  IC50: 23 nM
[6]
  IC50: 536 nM
[7]; Severe acute respiratory syndrome coronavirus 2, Caco-2, 24 h, read-out: IC50, SARS-CoV-2 Omicron BA.1
  IC50: 68 nM
[7]; Severe acute respiratory syndrome coronavirus 2, Caco-2, read-out: anti-viral IC50 (±SEM), SARS-CoV-2 BA.1
  IC50: 68.1 ± 5 nM
[8]; Human coronavirus NL63, Caco-2, 72 h, read-out: IC50, hCoV-NL63 replication
  IC50: 110 nM
[8]; [14]
  IC50: 110 ± 24 nM
[1]; Influenza A virus, Calu-3, 72 h, read-out: IC50, IAV H1N1 (Virg09)
  IC50: 220 nM
[1]; Influenza A virus, Calu-3, Table S1, read-out: anti-viral IC50 (±SEM), IAV H1N1
  IC50: 220 ± 49 nM
[9]; Influenza A virus, H3N2, Calu-3, 72 h, read-out: IC50, IAV H3N2 (Vict11)
  IC50: 50 nM
[9]; Influenza A virus, H3N2, Calu-3, Table S1, read-out: anti-viral IC50 (±SEM), IAV H3N2
  IC50: 50.2 ± 16 nM
[2]; Influenza B virus, Calu-3, 72 h, read-out: IC50, IBV (Ned05)
  IC50: 125 nM
[2]; Influenza B virus, Calu-3, Table S1, read-out: anti-viral IC50 (±SEM), IBV
  IC50: 125 ± 33 nM
[10]
  plasma half-life: < 2 h

## N=C(N)c1ccc2cc(OC(=O)c3ccc(N=C(N)N)cc3)ccc2c1 [Nafamostat mesylate]
[10]
  half-life: 8 min

## CC(C)(C)[C@H](NC(=O)C(F)(F)F)C(=O)N1C[C@H]2[C@@H]([C@H]1C(=O)N[C@H](C#N)C[C@@H]1CCNC1=O)C2(C)C [Nirmatrelvir]
[8]; [14]
  IC50: 1260 ± 64 nM

## Aprotinin
[1]; [12]
  IC50: 2250 ± 886 nM
[9]; Table S1, read-out: anti-viral IC50 (±SEM), IAV H3N2
  IC50: 1460 ± 693 nM
[2]; [13]
  IC50: 2790 ± 871 nM

## CNLPIVRGPCRAFIQLWAFDAVKGKCVLFPYGGCQGNGNKFYSEKECREYC (disulfide 1-51, 10-34, 26-47) [Bikunin KD 2]
[11]
  effect on VSV-G-mediated pseudoparticle entry: without affecting VSV‐G‐driven entry

B1: Bikunin (protein, UniProt P02760 206-352, looked up)
Inter-alpha-trypsin inhibitor …: AVLPQEEEGSGGGQLVTEVTKKEDSCQLGYSAGPCMGMTSRYFYNGTSMACETFQYGGCMGNGNNFVTEKECLQTCRTVAACNLPIVRGPCRAFIQLWAFDAVKGKCVLFPYGGCQGNGNKFYSEKECREYCGVPGDGDEELLRFSN
modifications: Inter-alpha-trypsin inhibitor light chain
[11]
  effect on VSV-G-mediated pseudoparticle entry: non‐specific effects against VSV‐G‐mediated entry
